Values joined by “and” are separate entries in the source; they are usually repeats but may differ in a detail not shown here. Equal values may be shown once. “Also recorded” adds a separate entry of the source.
Columns and labels:
Type in all cases: in vivo
pri-miR-9-1 = pri-miR-9-1 transcript levels in TALH of treated mouse kidneys (real-time PCR); settings: for changes in pri-miR-9-1 levels: by 8 hrs
Source text: (§1) Total RNA including microRNA was extracted using Trizol (Invitrogen). Cellular mRNA was reverse transcribed using the Superscript-III kit (Invitrogen), followed by real-time PCR amplification using SYBR Green PCR Master Mix (Bio-Rad) and Eppendorf Realplex2S system. The design of claudin-14 primers was described above. The design of pri-miRNA primers was according to Ma et al., (2010). Results were expressed as 2^−ΔCt values with ΔCT=Ctgene−Ctβ-actin.
(§2) To measure the transcriptional level for microRNA gene in vivo in the kidney, the inventors designed primers (see Methods; Table 2) to amplify the pri-miRNA molecule, the original transcript for microRNA gene that had not yet been subjected to any nuclear or cellular processing. Because both miR-9 and miR-374 had broader localization profiles along the nephron, the inventors isolated the TALH tubular cells for pri-miRNA analyses from the mouse kidney described elsewhere in this study. WT mice (strain: C57BL/6) were treated with NPS2143 or cinacalcet as described for claudin-14 analyses and assayed for pri-miRNA levels in isolated TALH cells at 2 hrs and 8 hrs respectively. […] NPS2143 and cinacalcet also profoundly regulated pri-miR-374. […] The expression levels of miR-9-1 and miR-374 genes were both inversely correlated with that of claudin-14 gene in the kidney, compatible with the silencing role of microRNA in regulating its target gene.
(§3) Total RNA including microRNA was extracted using Trizol (Invitrogen). Cellular mRNA was reverse transcribed using the Superscript-III kit (Invitrogen), followed by real-time PCR amplification using SYBR Green PCR Master Mix (Bio-Rad) and Eppendorf Realplex2S system. The design of claudin-14 primers was described before by Gong et al., 2012. The design of pri-miRNA primers and ChIP primers was according to Gong et al., 2013. Results were expressed as 2^−ΔCt values with ΔCT=Ctgene−Ctβ-actin.
as §3, with “by Gong. Y.,” for “by Gong”, “primers” for “primers and ChIP primers”, “to Ma. L.,” for “to Gong”, “al., 2010.” for “al., 2013.”

pri-miR-374 = pri-miR-374 transcript levels in TALH of treated mouse kidneys (real-time PCR); settings: for pri-miR-374 levels versus control: 8 hrs
Source text: as §1, §2, §3
as §3, with “by Gong. Y.,” for “by Gong”, “primers” for “primers and ChIP primers”, “to Ma. L.,” for “to Gong”, “al., 2010.” for “al., 2013.”

claudin-14 mRNA = claudin-14 mRNA levels in mouse kidney after systemic treatment (real-time PCR); settings: for claudin-14 mRNA, change: 30 mg/kg BW−1 per day for 6 days, 24 hrs following the last treatment; for claudin-14 mRNA relative to control level: by 8 hrs and through to 12 hrs
Experimental: NPS2143 and cinacalcet (Table 1) were dissolved in vehicle—20% (w/v) (2-Hydroxypropyl)-β-cyclodextrin solution and fed to mice with gavage syringe. Cyclosporin-A (Sandimmune; Table 1) was diluted in 0.9% saline and I.P. injected to animals. Control animals received vehicle injection (13% wiv Cremophor EL and 32.9% ethanol). For dietary Ca^2+ manipulation, animals were fed with the following diets for six consecutive days: basal diet: 0.61% Ca^2+ (TestDiet #5755); low Ca^2+ diet: 0 Ca^++ (TestDiet #5855); high Ca^2+ diet: 5% Ca^2+ (TestDiet #5AVB). All animals had free access to water and were housed under a 12 hr light cycle. Blood samples were taken by cardiac puncture rapidly after initiation of terminal anesthesia and centrifuged at 4° C. for 10 min. Kidney were dissected out and immediately frozen at −80° C.
as §1
SAHA and TsA were dissolved in 5% (w/v) ethanol/0.9% saline solution and fed to mice with gavage syringe. Furosemide was dissolved in 50% (w/v) DMSO/0.9% saline solution and I.P. injected to animals. All animals had free access to water and were housed under a 12 hr light cycle. Blood samples were taken by cardiac puncture rapidly after initiation of terminal anesthesia and centrifuged at 4° C. for 10 min. Kidney were dissected out and immediately frozen at −80° C.
as §3, with “ΔCT=Ctgene−Ctβ-actin. […]” for “ΔCT=Ctgene−Ctβ-actin.”
NPS2143 and cinacalcet (Table 9) were dissolved in vehicle −20% (w/v) (2-Hydroxypropyl)-β-cyclodextrin solution and fed to mice with gavage syringe. Cyclosporin-A (Sandimmune; Table 9) was diluted in 0.9% saline and I.P. injected to animals. Control animals received CNI vehicle injection (13% wiv Cremophor EL and 32.9% ethanol). FK506 was dissolved in CNI vehicle, diluted in 0.9% saline and I.P. injected to animals. For dietary Ca^+ manipulation, animals were fed with the following diets for six consecutive days: basal diet: 0.610% Ca^++ (TestDiet #5755); low Ca^++ diet: 0 Ca^++ (TestDiet #5855); high Ca^++ diet: 5% Ca^+ (TestDiet #5AVB). All animals had free access to water and were housed under a 12 hr light cycle. Blood samples were taken by cardiac puncture rapidly after initiation of terminal anesthesia and centrifuged at 4° C. for 10 min. Kidney were dissected out and immediately frozen at −80° C.
as §3, with “by Gong. Y.,” for “by Gong”, “primers” for “primers and ChIP primers”, “to Ma. L.,” for “to Gong”, “al., 2010.” for “al., 2013.”

[1] = cyclosporine-A pre-treated animals, 30 mg/kg BW−1, 2 hrs
[2] = TPTX mice, single dose 30 mg/kg BW−1, 2 hrs
[3] = second dose 30 mg/kg BW−1 at 12 hrs, measured at 14 hrs
[4] = single oral dose 30 mg/kg BW−1, 30 mg/kg
[5] = TPTX mice, 30 mg/kg BW−1, 2 hrs

Structure (SMILES): CC(C)(Cc1ccc2ccccc2c1)NC[C@@H](O)COc1cccc(Cl)c1C#N [NPS2143]
- changes in pri-miR-9-1 levels (pri-miR-9-1; 30 mg/kg BW−1): dissipated completely
- pri-miR-9-1 level, increase (pri-miR-9-1; TPTX mice, 30 mg/kg BW−1): 19%
- pri-miR-9-1 mRNA levels, change (pri-miR-9-1; [1]): failed to elicit any significant change
- pri-miR-9-1 transcript level, increase (pri-miR-9-1; single-dose 30 mg/kg BW−1, 2 hrs): 7.65 fold
- pri-miR-374, upregulation (pri-miR-374; 30 mg/kg BW−1, 2 hrs): 2.91 fold
- pri-miR-374 levels versus control (pri-miR-374; 30 mg/kg BW−1): not different from control
- pri-miR-374 level, change (pri-miR-374; TPTX mice, 30 mg/kg BW−1): failed to elicit a significant change
- pri-miR-374 mRNA levels, change (pri-miR-374; [1]): failed to elicit any significant change
- claudin-14 mRNA levels, reduction (dose response) (claudin-14 mRNA; 15 mg/kg BW−1, 2 hrs): 45%
- claudin-14 mRNA levels, reduction (dose response) (claudin-14 mRNA; 30 mg/kg BW−1, 2 hrs): 82%
- claudin-14 mRNA, change (claudin-14 mRNA): Neither NPS2143 nor cinacalcet caused changes
- claudin-14 mRNA levels, reduction (dose response) (claudin-14 mRNA; 45 mg/kg BW−1, 2 hrs): 89%
- claudin-14 gene expression, downregulation (claudin-14 mRNA; [2]): 35%
- claudin-14 mRNA levels, change (claudin-14 mRNA; [1]): failed to elicit any significant change
- claudin-14 mRNA levels, reduction (claudin-14 mRNA; [3]): 77%
- claudin-14 mRNA level, downregulation (claudin-14 mRNA; single oral dose 30 mg/kg BW−1, 2 hrs, versus vehicle): 80%
- claudin-14 mRNA, percent of control level (claudin-14 mRNA; single oral dose 30 mg/kg BW−1, 4 hrs): 78%
- claudin-14 mRNA relative to control level (claudin-14 mRNA; [4]): completely recovered to its control level; also recorded: no significant change

Structure (SMILES): O=C(CCCCCCC(=O)Nc1ccccc1)NO [SAHA, Suberanilohydroxamic acid]
- transcriptional levels of miR-9-1 gene (pri-miR-9-1), increase (pri-miR-9-1; 25 mg/kg BW−1, 4 hrs): 1.49 fold
- transcriptional levels of miR-374 gene (pri-miR-374), increase (pri-miR-374; 25 mg/kg BW−1, 4 hrs): 1.85 fold
- CLDN14 mRNA, dose response (claudin-14 mRNA; 5 mg/kg to 25 mg/kg, 4 hrs): downregulation of CLDN14 at dosage as low as 5 mg/kg
- effects on CLDN14 mRNA in the kidney (claudin-14 mRNA; 25 mg/kg BW−1, 12 hrs): dissipated
- reduction of CLDN14 expression in the kidney (claudin-14 mRNA; 25 mg/kg BW−1, by 4 hrs and through to at least 8 hrs): persisted
- CLDN14 mRNA levels in the kidney, reduction (claudin-14 mRNA; single dose 25 mg/kg BW−1, 2 hrs): 56%

Structure (SMILES): C[C@@H](NCCCc1cccc(C(F)(F)F)c1)c1cccc2ccccc12 [cinacalcet]
- pri-miR-9-1 transcript level, decrease (pri-miR-9-1; 30 mg/kg BW−1, 2 hrs): 88%
- changes in pri-miR-9-1 levels (pri-miR-9-1; 30 mg/kg BW−1): dissipated completely
- pri-miR-9-1 level, reduction (pri-miR-9-1; [5]): 55%
- pri-miR-9-1 mRNA levels, decrease (pri-miR-9-1; [1]): 34%
- pri-miR-374, downregulation (pri-miR-374; 30 mg/kg BW−1, 2 hrs): 71%
- pri-miR-374 levels versus control (pri-miR-374; 30 mg/kg BW−1): not different from control
- pri-miR-374 level, reduction (pri-miR-374; [5]): 53%
- pri-miR-374 mRNA levels, decrease (pri-miR-374; [1]): 39%
- claudin-14 expression, induction (dose response) (claudin-14 mRNA; 15 mg/kg BW−1, 2 hrs): 2.33 fold
- claudin-14 expression, induction (dose response) (claudin-14 mRNA; 30 mg/kg BW−1, 2 hrs): 3.17 fold
- claudin-14 mRNA, change (claudin-14 mRNA): Neither NPS2143 nor cinacalcet caused changes
- claudin-14 expression, induction (dose response) (claudin-14 mRNA; 45 mg/kg BW−1, 2 hrs): 6.38 fold
- claudin-14 expression levels, upregulation (claudin-14 mRNA; [2]): 3.41 fold
- claudin-14 mRNA levels, increase (claudin-14 mRNA; [1]): 1.73 fold
- claudin-14 mRNA levels, increase (claudin-14 mRNA; [3]): 3.23 fold
- claudin-14 mRNA level, upregulation (claudin-14 mRNA; single oral dose 30 mg/kg BW−1, 2 hrs, intact mice, versus vehicle): 3.3 fold
- claudin-14 mRNA level, upregulation (ceiling) (claudin-14 mRNA; single oral dose 30 mg/kg BW−1, 4 hrs, versus vehicle, 30 mg/kg): 3.97 fold and 3.98 fold
- claudin-14 mRNA relative to control level (claudin-14 mRNA; [4]): recovered to its control level; also recorded: no significant change

— US20140242609A1, “Diagnosis and treatment of kidney stones, methods and compositions therefor” (Washington University, priority 2013, published 2014)
